Test results: US20240358984A1, “Ultrasound delivery” (ACT Therapeutics Ltd, priority 2021, published 2024)

Test system: subcutaneous prostate cancer model (PC3)
Test: Tumour specific uptake of Evans Blue after ACT
Format: in vivo, mice
Conditions: Enhancement 0.5 MHz, MI 0 to 0.4, 30 min after treatment
Procedure: To investigate the effect of MI variance of the US Enhancement field, tumour specific uptake of Evans Blue (EB, fluorescent dye) has been investigated in a subcutaneous prostate cancer model (PC3) in mice. Five groups with Enhancement insonation MIs of 0, 0.1, 0.2, 0.3 and 0.4 were investigated (N=3 animals per group). […] 30 min after treatment, the tumors were excised and the amount of EB was measured by spectrophotometry at 620 nm.

In the case of `Cc1cc(-c2ccc(/N=N/c3ccc4c(S(=O)(=O)O)cc(S(=O)(=O)O)c(N)c4c3O)c(C)c2)ccc1/N=N/c1ccc2c(S(=O)(=O)O)cc(S(=O)(=O)O)c(N)c2c1O` [Evans Blue], the “tumour tissue uptake as function of Enhancement MI” value is reported as “increases from no US (MI=0) to MI=0.1 and further with MI=0.2, but then drops again with MI=0.3 and further with M=0.4”.
